Biological target: T1, human recombinant AR-LBD (Homo sapiens, UniProt P10275)
T1 sequence (P10275 664-920): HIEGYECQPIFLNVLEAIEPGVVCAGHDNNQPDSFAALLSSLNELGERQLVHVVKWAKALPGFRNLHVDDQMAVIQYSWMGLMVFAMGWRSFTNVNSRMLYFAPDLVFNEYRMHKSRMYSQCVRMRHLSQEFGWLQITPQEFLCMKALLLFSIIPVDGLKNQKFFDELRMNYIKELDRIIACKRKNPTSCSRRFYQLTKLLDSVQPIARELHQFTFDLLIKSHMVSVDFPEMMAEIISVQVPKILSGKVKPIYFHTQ
Assay: microscale thermophoresis
Type: binding
Conditions: […] 3d, […] His-tagged AR-LBD, […] Tris, […] NaCl, pH […] DTT, […] Tween; labelled protein

Cc1c2c(nn1-c1ccc(F)cc1)C[C@@H]1CC[C@@H]3[C@H](CC[C@]4(C)[C@@H](O)CC[C@@H]34)[C@@]1(C)C2 [3d]
microscale thermophoresis: confirmed thus binding of 3d into the AR-LBD
